According to PubChem BioAssay (NCI):
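Growth conditions: 96-well plates. Treatment: test compound, 48 hours, 5 concentrations. Analysis: linear interpolation between bracketing concentrations; unreached endpoints set to highest concentration. Abbreviation: GI50, concentration required for 50% inhibition of growth. At the TGI there is no net growth.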

Experiments:
Assay in all cases: DTP human tumour cell line panel, 48 h
[1] = system: EKVX NSCLC
[2] = system: HS 578T breast
[3] = system: T-47D breast
[4] = system: NCI-H460 lung
[5] = system: MALME-3M melanoma
[6] = system: SK-MEL-5 melanoma
[7] = system: 786-0 renal
[8] = system: SK-OV-3 ovarian
[9] = system: SNB-75 CNS
[10] = system: HT29 colon

Row | Compound | TGI [1] [µM] | TGI [2] [µM] | TGI [3] [µM] | TGI [4] [µM] | TGI [5] [µM] | TGI [6] [nM] | TGI [7] [µM] | TGI [8] [µM] | TGI [9] [µM] | TGI [10] [µM] | GI50 [1] [nM] | GI50 [2] [nM] | GI50 [3] [nM] | GI50 [4] [nM] | GI50 [5] [nM] | GI50 [6] [nM] | GI50 [7] [nM] | GI50 [8] [µM] | GI50 [9] [nM] | GI50 [10] [nM]
1 | N#CC1(C2SCCS2=O)C2=C(C(=O)c3ccccc3C2=O)N2CCCC21 (configuration not stated) | 13.9 | 12.8 | 8.16 | 11.8 | 1.27 | 1100 | 18.7 | 51.7 | 8.04 | 14.2 |  |  |  |  |  |  |  |  |  | 
2 | O/N=C\c1c(O)ccc2ccccc12 | > 100 | > 100 | > 100 | > 100 | 75.5 | > 100000 | > 100 | > 100 | > 100 | > 100 |  |  |  |  |  |  |  |  |  | 
3 | Nc1c(C(=O)N/N=C/c2ccc(-c3ccc(Cl)cc3)o2)cnn1-c1ccnc2c(C(F)(F)F)cccc12 | > 100 | > 100 | > 100 | > 100 | > 100 | > 100000 | > 100 | > 100 | > 100 | > 100 | > 100000 | > 100000 | 42400 | > 100000 | > 100000 | 49100 | > 100000 | > 100 | 65400 | 77400
4 | O=C(CN(C1CCCCC1)C1CCCCC1)Nc1ccc(S(=O)(=O)c2ccc(NC(=O)CN(C3CCCCC3)C3CCCCC3)cc2)cc1 | 2.88 | 6.9 | 3.74 | 1.63 | 1.3 | 1650 | 2.39 | 21.6 | 9.32 | 1.44 | 1410 | 1030 | 1150 | 382 | 334 | 395 | 941 | 8.64 | 2270 | 390
5 | CCN(CC)CCNCC(=O)Oc1ccc(/C=C/C(=O)CC(=O)/C=C/c2ccc(OC(=O)CNCCN(CC)CC)c(OC)c2)cc1OC | 5.4 | 26.4 | 31.6 | 22.2 | 7.65 | 9650 | 5.93 | 12.6 | 28.1 | 6.02 | 2010 | 3590 | 6100 | 3410 | 2570 | 2570 | 2380 | 3.71 | 6310 | 2360
6 | COc1cc2cn3c4ccc(O)cc4[nH]c(=O)c3c2cc1OC | 2 | > 100 | 2.05 |  | 2.06 | 563 | 2.02 | 1.95 | 1.47 | 0.469 | 60.7 | 70.2 | 19.9 |  | 34.9 | < 15 | 71.5 | 0.0367 | 19.7 | 25
7 | NC(=O)C(=CNc1nc(-c2ccc(Cl)c(Cl)c2)cs1)C(N)=O | > 100 | > 100 | > 100 | > 100 | > 100 | > 100000 | > 100 | > 100 | > 100 | > 100 | 43800 | 26900 | > 100000 | 69700 | > 100000 | 71600 | > 100000 | > 100 | > 100000 | > 100000
8 | COc1ccccc1/C=C/c1cnccn1 | > 10 | > 10 | > 10 | > 10 | > 10 | > 10000 | > 10 | > 10 | > 10 | > 10 |  |  |  |  |  |  |  |  |  | 
9 | O=C(O)c1cc(O)c2c(c1)C(C1c3cc(C(=O)O)cc(O)c3C(=O)c3c(OC4OC(CO)C(O)C(O)C4O)cccc31)c1cccc(OC3OC(CO)C(O)C(O)C3O)c1C2=O (configuration not stated) | > 100 | > 100 | > 100 | > 100 | > 100 | > 100000 | > 100 | > 100 | > 100 | > 100 | > 100000 | > 100000 | > 100000 | > 100000 | > 100000 | > 100000 | > 100000 | > 100 | > 100000 | > 100000
10 | CC(=O)Oc1ccccc1C(=O)N=C1[Se]CCN1C(=O)c1ccccc1OC(C)=O |  | 3.02 | 5.06 | 2.06 | 1.45 | 2050 | 2.8 | 2.82 | 3 | 4.46 |  | 507 | 1840 | 379 | 380 | 566 | 1460 | 1.05 | 1250 | 637
11 | CC(C)c1ccccc1S(=O)c1ccccc1C(C)(C)O (configuration not stated) | > 100 | > 100 | > 100 | > 100 | > 100 | 81500 | > 100 | > 100 | > 100 | > 100 |  |  |  |  |  |  |  |  |  | 
12 | CC(=O)Oc1ccc(Nc2c3ccccc3nc3ccccc23)cc1 | 25.3 | 3.19 | 7.23 | 1.3 | 5.35 | 2150 | 6.4 | 5.91 | 5.08 | 3.53 | 3050 | 435 | 1720 | 295 | 1310 | 984 | 1890 | 1.47 | 544 | 1100
13 | CN1CCc2c(Sc3ccc(C(=O)NO)cc3)c3ccccc3n2C1 |  | 27 | 5.84 | 7.73 | 4.33 | 6670 | 15.3 | 5.67 | 3.79 | 12.2 |  | 2640 | 1620 | 2340 | 1120 | 2390 | 4120 | 2.08 | 674 | 2830
14 | CN(C)c1ccc2nc3ccc(=O)cc-3sc2c1 |  | > 100 | > 100 | 15.7 | 4.18 | 495 | > 100 | > 100 | > 100 | 37.1 |  | 7120 | 1000 | 1550 | 333 | 173 | 2060 | 6.02 | 11700 | 4260
